Assay results published in US10131652B2, “Pyrimidinyloxy benzene derivatives as herbicides” (E. I. DU PONT DE NEMOURS AND COMPANY, priority 2014, dated 2018).

Legend:
Format in all cases: in vivo
[1] = test system: galium (catchweed bedstraw, Galium aparine); assay: Test B postemergence plant response
How it was run: (§1)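 Pots, loam soil + sand; postemergence treatment at 1–2 leaf stage, 2–10 cm; greenhouse ~10 d; visual injury score 0 (none) to 100 (complete control) relative to untreated controls.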

[2] = test system: blackgrass (Alopecurus myosuroides); assay: Test B postemergence plant response
How it was run: as §1

[3] = test system: kochia (Kochia scoparia); assay: Test D postemergence plant response; settings: for Kochia plant response rating: 31 g ai/ha, scale 0 to 100 (0 no effect, 100 complete control); for Plant response rating, Kochia: scale 0 to 100, 0 no effect, 100 complete control
Excerpt: (§2) At the same time, plants selected from these crop and weed species and also kochia (Kochia scoparia), wild oat (Avena fatua), and chickweed (common chickweed, Stellaria media) were planted in pots containing Redi-Earth® planting medium (Scotts Company, 14111 Scottslawn Road, Marysville, Ohio 43041) comprising spaghnum peat moss, vermiculite, wetting agent and starter nutrients and treated with postemergence applications of test chemicals formulated in the same manner. Plants ranged in height from 2 to 18 cm (1- to 4-leaf stage) for postemergence treatments. Treated plants and controls were maintained in a greenhouse for 13 to 15 days, after which time all species were compared to controls and visually evaluated. Plant response ratings, summarized in Table D, are based on a scale of 0 to 100 where 0 is no effect and 100 is complete control. A dash (-) response means no test result.

[4] = test system: chickweed (common chickweed, Stellaria media); assay: Test D postemergence plant response; settings: for Chickweed plant response rating: 31 g ai/ha, scale 0 to 100 (0 no effect, 100 complete control); for Plant response rating, Chickweed: scale 0 to 100, 0 no effect, 100 complete control
Excerpt: as §2

[5] = test system: wild oat (Avena fatua); assay: Test D postemergence plant response; settings: for Plant response rating, Oat, Wild: 125 g ai/ha
Excerpt: as §2

[6] = 125 g ai/ha, postemergence, 0 to 100 scale, 0 no effect, 100 complete control
[7] = Postemergence, 31 g ai/ha, 0 to 100 scale (0 no effect, 100 complete control)
[8] = 31 g ai/ha, scale 0 to 100 (0 no effect, 100 complete control)
[9] = 62 g ai/ha, scale 0 to 100, 0 no effect, 100 complete control
[10] = scale 0 to 100, 0 no effect, 100 complete control
[11] = Postemergence, 500 g ai/ha, 0 to 100 scale (0 no effect, 100 complete control)
[12] = Postemergence, 1000 g ai/ha, 0 to 100 scale (0 no effect, 100 complete control)

| SMILES | Plant response rating, Galium [1, 6] | Plant response rating, Galium [1, 7] | Plant response rating, Blackgrass [2, 6] | Plant response rating, Blackgrass [2, 7] | Plant response rating (scale 0 to 100), Kochia ([3]; 16 g ai/ha) | Kochia plant response rating [3] | Plant response rating, Kochia ([3]; 62 g ai/ha) | Plant response rating, Kochia ([3]; 125 g ai/ha) | Plant response rating (scale 0 to 100), Chickweed ([4]; 16 g ai/ha) | Chickweed plant response rating [4] | Plant response rating, Chickweed ([4]; 62 g ai/ha) | Plant response rating, Chickweed ([4]; 125 g ai/ha) | Plant response rating (scale 0 to 100), Oat, Wild ([5]; 16 g ai/ha) | Oat, Wild plant response rating [5, 8] | Oat, Wild plant response rating [5, 9] | Plant response rating, Oat, Wild [5, 10] | Plant response rating, Galium [1, 11] | Plant response rating, Blackgrass [2, 11] | also measured |
| --- | --- | --- | --- | --- | --- | --- | --- | --- | --- | --- | --- | --- | --- | --- | --- | --- | --- | --- | --- |
| CC(F)(F)c1cc(-c2ccccc2Oc2ncc(Cl)cn2)on1 [Compound 178] | 100 | 80 | 40 | 10 | 90 | 95 | 100 | 100 | 50 | 50 | 60 | 80 | 0 | 0 | 5 | 5 |  |  |  |
| N#Cc1cccc(Oc2ncc(Cl)cn2)c1-c1cc(C(F)F)on1 [Compound 180] | 100 |  | 90 |  | 85 | 90 | 100 | 100 | 60 | 60 | 85 | 95 | 0 | 5 | 5 | 30 | 100 | 90 |  |
| Clc1cnc(Oc2ccccc2-c2cc(C3CC3)on2)nc1 [Compound 183] | 100 |  | 80 |  | 90 | 95 | 100 | 100 | 30 | 60 | 65 | 70 | 0 | 5 | 10 | 25 | 100 | 90 |  |
| Clc1cnc(Oc2ccccc2-c2ccon2)nc1 [Compound 185] | 40 |  | 0 |  | 0 | 0 | 5 | 30 | 0 | 0 | 5 | 5 | 0 | 0 | 0 | 5 | 70 | 50 |  |
| FCc1cc(-c2c(Br)cccc2Oc2ncc(Cl)cn2)no1 [Compound 191] |  |  |  |  | 50 | 80 | 85 | 90 | 50 | 55 | 70 | 90 | 0 | 0 | 5 | 5 |  |  | Plant response rating, Galium [1, 12]: 100; Plant response rating, Blackgrass [2, 12]: 100 |
| Clc1cnc(Oc2ccccc2-c2cc(Cl)sn2)nc1 [Compound 192] |  |  |  |  | 50 | 80 | 90 | 95 | 0 | 50 | 50 | 55 | 0 | 0 | 0 | 5 |  |  | Plant response rating, Galium [1, 12]: 100; Plant response rating, Blackgrass [2, 12]: 90 |
| FC(Cl)(Cl)c1cc(-c2ccccc2Oc2ncc(Cl)cn2)no1 [Compound 198] | 100 | 100 | 40 | 10 | 60 | 95 | 100 | 100 | 5 | 60 | 60 | 95 | 5 | 5 | 10 | 10 |  |  |  |
| CC(F)(F)c1cc(-c2ccccc2Oc2ncc(Cl)cn2)no1 [Compound 220] | 100 | 90 | 90 | 60 | 100 |  |  |  | 40 |  |  |  | 5 |  |  |  |  |  | Plant response rating (scale 0 to 100), Kochia ([3]; 2 g ai/ha): 20; Plant response rating (scale 0 to 100), Kochia ([3]; 4 g ai/ha): 50; Plant response rating (scale 0 to 100), Kochia ([3]; 8 g ai/ha): 100; Plant response rating (scale 0 to 100), Chickweed ([4]; 2 g ai/ha): 5; Plant response rating (scale 0 to 100), Chickweed ([4]; 4 g ai/ha): 10; Plant response rating (scale 0 to 100), Chickweed ([4]; 8 g ai/ha): 40; Plant response rating (scale 0 to 100), Oat, Wild ([5]; 2 g ai/ha): 0; Plant response rating (scale 0 to 100), Oat, Wild ([5]; 4 g ai/ha): 0; Plant response rating (scale 0 to 100), Oat, Wild ([5]; 8 g ai/ha): 0 |
| FCc1cc(-c2ccccc2Oc2ncc(Cl)cn2)on1 [Compound 224] | 100 | 80 | 70 | 40 | 35 | 70 | 95 | 100 | 10 | 15 | 40 | 80 | 0 | 0 | 0 | 0 |  |  |  |
